Source: patent publication US8821754B2, “Additive for preserving the fluidity of fluids containing gas hydrates” (Akzo Nobel N.V., priority 2006, dated 2014)
Marks after values point to notes of the source that are not given here.

How the values were obtained:
[1] = multicell screening of anti-agglomerants (stirred cells cooled to 4° C., 100 bars); parameters: key to Tests multicell screening, Seawater 1.0% / Tests multicell screening, Seawater 1.5% / Tests multicell screening, Fresh water 1.5% / Tests multicell screening, Fresh water 2.5%: 0: the compound does not work as an anti-agglomerant; 1: the compound initially works as an anti-agglomerant, but not throughout the whole test; 2: the compound works as an anti-agglomerant throughout the whole test; conditions: for Tests multicell screening, Fresh water 1.5% / Tests multicell screening, Seawater 1.5%: 1.5% anti-agglomerant; for Tests multicell screening, Fresh water 1.5% / Tests multicell screening, Fresh water 2.5% / Tests multicell screening, Seawater 1.0% / Tests multicell screening, Seawater 1.5%: 100 bars, 4° C., Sleipner condensate; for Tests multicell screening, Fresh water 2.5%: 2.5% anti-agglomerant; for Tests multicell screening, Seawater 1.0%: 1.0% anti-agglomerant; for effect as anti-agglomerant for gas hydrates in the screening test, in words: multicell screening test of Example 1
Description: (§1) The technique used for evaluating the anti-agglomerants is described in detail in “New Technique for Evaluating Antiagglomerate Gas-Hydrate Inhibitors in Oilfield Applications”, SPE 93075, 2005 SPE International Symposium on Oilfield Chemistry, Houston, Tex., Feb. 2-4.
(§2) The complete multicell system consists of a high-pressure vessel containing the multicell test unit, a cooling unit, a stirrer drive, a sensor interface unit, and a computer system. The high-pressure vessel is connected to two gas cylinders containing pressurized hydrocarbon gas (87.9% methane, 7.7% ethane, 3.1% propane, and 1.3% isobutane) and nitrogen. Thus, in an experimental run each test cell will be subjected to the same gas mixture, temperature, and pressure. Each cell has a magnetic bar stirrer and the rotation of the stirrer is monitored by the sensor and recorded. When gas hydrate crystals are formed in a cell, there will be a change in viscosity or flow behaviour and there will be a change in the lag of the stirrer bar. Each time the magnetic bar passes a certain point, an optical pulse is recorded. The lag is measured as the difference between the position of the lower drive magnets and the stirrer in the cell. When the viscosity gets too high, as is the case when larger aggregates of gas hydrates are formed, the magnetic stirrer will either stop completely, in which case the signal will be zero, or start “skipping”, which will create an unstable/random signal, and this will be shown in the recorded graph.
(§3) Each cell is also equipped with a temperature sensor.
The cells are loaded with 1 ml of water/inhibitor mixture and 2.5 ml of Sleipner condensate (=crude oil obtained from the Sleipner oilfield of Statoil). Nitrogen is first applied to expel most of the air, and then hydrocarbon gas is admitted until a constant pressure of 100 bars is reached.
During the whole test, the mixtures were continuously stirred at 120 rpm. The temperature was first lowered from about 20° C. to 4° C. in about 1.5 hours, then kept at 4° C. for about two hours, and finally reheated again to 20° C. in about 1.5 hours. When the stirrer works all the time, the compound is considered to work well as an anti-agglomerant, whereas if the stirrer bar stops, the compound is considered not to work as an anti-agglomerant during the prevailing conditions. The tests were performed both in seawater and in fresh water and at different concentrations of the anti-agglomerants.

[2] = multicell shut-in and restart test of anti-agglomerants; parameters: key: 0: The stirrer did not start at all until the temperature had been increased so much that the gas hydrate had melted; 1: The stirrer started but stopped again after a short period; 2: The stirrer started and kept on running continuously; conditions: restart after at least twelve hours at 4° C.; for Tests multicell shut-in, Fresh water (70 bar) 2.5% / Tests multicell shut-in, Seawater (70 bar) 2.5%: 2.5% anti-agglomerant; for Tests multicell shut-in, Fresh water (70 bar) 2.0%: 2.0% anti-agglomerant
Description: as §1, §2, §3
The cells are loaded in the same way as above, but hydrocarbon gas is admitted until the constant stated pressure is reached.
In this experiment the test cells were stirred at 120 rpm for one hour at 20° C. and the stated pressure. The stirring was then stopped and the autoclave cooled to 4° C. in about 1.5 hours. The cells were then kept at 4° C. for a minimum of twelve hours before the driving magnets were restarted at 120 rpm. They were then kept running for about two hours at 4° C. before the cells were reheated to 20° C. in about 1.5 hours.
This is marked as 0 in the tables. • The stirrer started but stopped again after a short period. This is marked as 1 in the tables. • The stirrer started and kept on running continuously. This is marked as 2 in the tables.

[3] = seawater, 1.5% anti-agglomerant

Molecule	Tests multicell screening, Seawater 1.0% [1]	Tests multicell screening, Seawater 1.5% [1]	Tests multicell shut-in, Seawater (70 bar) 2.5% ([2]; seawater)	other results
Oleyl amine + 2EO, diester with acetic acid [Compound 5]	0	2		Tests multicell screening, Fresh water 1.5% [1]: 0; Tests multicell screening, Fresh water 2.5% [1]: 0
N-(2-ethylhexyl)-trimethylene diamine + 3PO [Compound 15]			2	Tests multicell shut-in, Fresh water (70 bar) 2.5% [2]: 1
Erucyl amine + 2EO + 2PO [Compound 2]		2		Tests multicell screening, Fresh water 1.5% [1]: 2
CCCCC(CC)CN(CCCNC(C)=O)C(C)=O (centres unmarked) [Compound 14, N-(2-ethylhexyl)-trimethylene diamine, diamidated with acetic anhydride]			0	Tests multicell shut-in, Fresh water (70 bar) 2.5% [2]: 2; Tests multicell shut-in, Seawater (70 bar) 1.5% [2, 3]: 0
CCCCCCCCN(CCCNC(C)=O)C(C)=O [Compound 11, N-(n-octyl)-trimethylene diamine diamidated with acetic anhydride]		2		
Oleyl amine + 2EO [D, reference compound]	0			
N,N-bis(3-aminopropyl)(tallow alkyl)amine, diamidated with acetic anhydride [Compound 9]	0	2		
N-(coco alkyl)-trimethylene diamine diamidated with acetic anhydride [Compound 12]		2		
CCCCCCCC/C=C\CCCCCCCCN(CCCNC(C)=O)C(C)=O [Compound 10, N-oleyl-trimethylene diamine diamidated with acetic anhydride]		2	2	Tests multicell shut-in, Fresh water (70 bar) 2.5% [2]: 2; Tests multicell shut-in, Seawater (70 bar) 1.5% [2, 3]: 0
(Coco alkyl)amine + 2EO [B, reference compound]	0	0		effect as anti-agglomerant for gas hydrates in the screening test, in words [1]: not effective
N-(n-octyl)-trimethylene diamine + 3PO [Compound 4]		2		
(Coco alkyl)amine + 2EO + 2PO [Compound 3]	2	2	1	effect as anti-agglomerant for gas hydrates in the screening test, in words [1]: works excellently as an anti-agglomerant; Tests multicell shut-in, Fresh water (70 bar) 2.0% [2]: 2; Tests multicell shut-in, Seawater (70 bar) 1.5% [2, 3]: 0
Oleyl amine + 2EO + 2PO, quaternized with CH3Cl [reference compound]		2		Tests multicell screening, Fresh water 1.5% [1]: 0
Monoamide between oleic acid and aminoethyl ethanolamine, amidated with acetic anhydride [Compound 8]	2	2		Tests multicell screening, Fresh water 1.5% [1]: 2
Oleyl amine + 2EO + 2PO [Compound 1]		2	1	Tests multicell shut-in, Fresh water (70 bar) 2.0% [2]: 1; Tests multicell shut-in, Fresh water (70 bar) 2.5% [2]: 1; Tests multicell shut-in, Seawater 1.5%, measured at 100 bar ([2]; seawater, 100 bar, 1.5% anti-agglomerant): 2**
N-oleyl-trimethylene diamine + 3EO, triesterified with acetic anhydride [Compound 6]		2	1	Tests multicell screening, Fresh water 2.5% [1]: 2; Tests multicell shut-in, Fresh water (70 bar) 2.5% [2]: 2; Tests multicell shut-in, Seawater (70 bar) 1.5% [2, 3]: 0
(Coco alkyl)amine + 4 EO [reference compound]	0	0		effect as anti-agglomerant for gas hydrates in the screening test, in words [1]: not effective
Monoamide between oleic acid and aminoethyl ethanolamine + 1EO, diesterified with acetic anhydride [Compound 7]	2			
N-(tallow alkyl)-N-methyl aminopropylamine monoamidated with acetic anhydride [Compound 13]		2		
